Laboratory results published in ChEMBL document CHEMBL1201862, “PubChem BioAssay data set” (2004).
Values joined by “and” are separate entries in the source; they are usually repeats but may differ in a detail not shown here. Equal values may be shown once.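 These data come from cells grown in 96-well plates and exposed to compound for 48 hours at five concentrations. Here, GI50 denotes the concentration required for 50% inhibition of growth.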 Active and inactive are the calls of the source. Rule as the data show it: active = GI50 up to about 1.1 µM and inactive = higher.

Key:
Assay in all cases: NCI-60 cell line screen, 48 h
NCI-H460 = tested on: NCI-H460
SK-OV-3 = tested on: SK-OV-3
SW-620 = tested on: SW-620
SN12C = tested on: SN12C
HOP-92 = tested on: HOP-92
SF-268 = tested on: SF-268
OVCAR-4 = tested on: OVCAR-4
OVCAR-8 = tested on: OVCAR-8
SR = tested on: SR
UACC-257 = tested on: UACC-257
HCT-116 = tested on: HCT-116
SF-295 = tested on: SF-295
NCI-H522 = tested on: NCI-H522
TK-10 = tested on: TK-10
COLO 205 = tested on: COLO 205
HCC 2998 = tested on: HCC 2998
Hs-578T = tested on: Hs-578T
NCI/ADR-RES = tested on: NCI/ADR-RES
MCF7 = tested on: MCF7
KM12 = tested on: KM12
CCRF-CEM = tested on: CCRF-CEM
K562 = tested on: K562
SNB-75 = tested on: SNB-75
SK-MEL-5 = tested on: SK-MEL-5
RXF 393 = tested on: RXF 393
ACHN = tested on: ACHN
U-251 = tested on: U-251
SK-MEL-28 = tested on: SK-MEL-28
LOX IMVI = tested on: LOX IMVI
PC-3 = tested on: PC-3
DU-145 = tested on: DU-145
SNB-19 = tested on: SNB-19
NCI-H226 = tested on: NCI-H226
UO-31 = tested on: UO-31
A498 = tested on: A498
MOLT-4 = tested on: MOLT-4
MDA-N = tested on: MDA-N
HT-29 = tested on: HT-29
A549 = tested on: A549
EKVX = tested on: EKVX
MDA-MB-435 = tested on: MDA-MB-435
M14 = tested on: M14
SF-539 = tested on: SF-539
HL-60 = tested on: HL-60
OVCAR-3 = tested on: OVCAR-3
HOP-62 = tested on: HOP-62
MDA-MB-231 = tested on: MDA-MB-231
T47D = tested on: T47D
SK-MEL-2 = tested on: SK-MEL-2
HCT-15 = tested on: HCT-15
RPMI-8226 = tested on: RPMI-8226
786-0 = tested on: 786-0
IGROV-1 = tested on: IGROV-1
NCI-H23 = tested on: NCI-H23
UACC-62 = tested on: UACC-62
OVCAR-5 = tested on: OVCAR-5
Malme-3M = tested on: Malme-3M
CAKI-1 = tested on: CAKI-1

Measured: GI50

Cc1ccc(S(=O)(=O)NCCSCCSCCNS(=O)(=O)c2ccc(C)cc2)cc1
inactive: NCI-H460 25.4 µM | SK-OV-3 18.4 µM | SW-620 44.6 µM | SN12C 47.4 µM | HOP-92 22 µM | SF-268 24 µM | OVCAR-4 34.8 µM | OVCAR-8 47.2 µM | SR 37.2 µM | UACC-257 34.4 µM | HCT-116 34.7 µM | SF-295 45.8 µM | NCI-H522 62.5 µM | TK-10 53.2 µM | COLO 205 19.4 µM | HCC 2998 39.4 µM | Hs-578T 47.2 µM | NCI/ADR-RES 24 µM | MCF7 38.9 µM | KM12 25.6 µM | CCRF-CEM 36.9 µM | K562 48.6 µM | SNB-75 20.8 µM | SK-MEL-5 4.7 µM | RXF 393 56.2 µM | ACHN 48.6 µM | U-251 4.6 µM | SK-MEL-28 > 100 µM | LOX IMVI 25.4 µM | PC-3 22.6 µM | DU-145 51.2 µM | SNB-19 63.4 µM | NCI-H226 49 µM | UO-31 34.1 µM | A498 10 µM | MOLT-4 34 µM | MDA-N 56 µM | HT-29 28.6 µM | A549 30.5 µM

CN1N=C(c2ccncc2)OC1c1cccc(F)c1 (stereo not drawn)
inactive: NCI-H460 > 100 µM | SK-OV-3 > 100 µM | SW-620 > 100 µM | SN12C > 100 µM | EKVX > 100 µM | MDA-MB-435 > 100 µM | M14 > 100 µM | SF-539 > 100 µM | HL-60 > 100 µM | SF-268 > 100 µM | OVCAR-4 > 100 µM | OVCAR-8 > 100 µM | UACC-257 > 100 µM | HCT-116 > 100 µM | SF-295 > 100 µM | NCI-H522 > 100 µM | TK-10 > 100 µM | COLO 205 > 100 µM | OVCAR-3 > 100 µM | HOP-62 > 100 µM | HCC 2998 > 100 µM | Hs-578T > 100 µM | NCI/ADR-RES > 100 µM | MCF7 > 100 µM | KM12 > 100 µM | CCRF-CEM > 100 µM | K562 > 100 µM | SNB-75 > 100 µM | MDA-MB-231 > 100 µM | T47D > 100 µM | SK-MEL-5 > 100 µM | SK-MEL-2 > 100 µM | RPMI-8226 > 100 µM | 786-0 > 100 µM | IGROV-1 > 100 µM | RXF 393 > 100 µM | ACHN > 100 µM | U-251 > 100 µM | SK-MEL-28 > 100 µM | NCI-H23 > 100 µM | LOX IMVI > 100 µM | PC-3 > 100 µM | DU-145 > 100 µM | SNB-19 > 100 µM | NCI-H226 68.5 µM | UO-31 > 100 µM | UACC-62 > 100 µM | A498 > 100 µM | OVCAR-5 > 100 µM | MOLT-4 > 100 µM | MDA-N > 100 µM | HT-29 > 100 µM | A549 > 100 µM
> 100 µM: HCT-15

CN(C)c1ccc(/C=C/c2sc3ccccc3[n+]2C)cc1
4.75 µM and 9.27 µM: HCT-15
active: SW-620 433 nM and 427 nM | MDA-MB-435 813 nM and 879 nM | HL-60 180 nM and 348 nM | OVCAR-3 550 nM and 501 nM | NCI-H23 1.07 µM and 743 nM | PC-3 1.09 µM and 838 nM | MOLT-4 270 nM and 238 nM
1.09 µM (active) and 1.7 µM (inactive): SK-MEL-5
inactive: SK-OV-3 4.56 µM | SF-539 3.18 µM and 4.18 µM | HOP-92 3.65 µM and 1.85 µM | SF-268 3.29 µM and 3.4 µM | OVCAR-4 2.62 µM and 2.71 µM | UACC-257 1.82 µM and 1.6 µM | SF-295 3.29 µM and 6.35 µM | NCI-H522 1.93 µM and 1.58 µM | Malme-3M 1.54 µM and 1.96 µM | TK-10 5.65 µM and 3.37 µM | Hs-578T 4 µM and 7.62 µM | NCI/ADR-RES 36.9 µM and > 57 µM | CAKI-1 2.52 µM and 3.33 µM | T47D 2.47 µM and 4.05 µM | SK-MEL-2 2.82 µM and 2.29 µM | 786-0 1.82 µM and 1.61 µM | ACHN 1.46 µM and 2.2 µM | SK-MEL-28 1.85 µM and 3.44 µM | SNB-19 2.09 µM and 1.99 µM | NCI-H226 3.71 µM and 2.62 µM | A498 14.9 µM and 12.6 µM | OVCAR-5 12.7 µM and 10.3 µM | MDA-N 1.16 µM | A549 2.2 µM and 3.82 µM

C=C1C(=O)O[C@H]2C(=O)[C@H](C)CCC[C@@](C)(O)/C=C\C[C@@]3(C)O[C@@H]3C[C@@H]12
active: MOLT-4 < 0.01 µM
11.5 µM: HCT-15
inactive: NCI-H460 26.5 µM | SK-OV-3 > 100 µM | SW-620 8 µM | SN12C 17.1 µM | MDA-MB-435 18.5 µM | M14 11.3 µM | SF-539 19.3 µM | HOP-92 10.3 µM | SF-268 23.3 µM | OVCAR-8 19.9 µM | UACC-257 14.1 µM | HCT-116 7.29 µM | SF-295 5.28 µM | NCI-H522 2.88 µM | TK-10 4.19 µM | COLO 205 16.2 µM | OVCAR-3 11.2 µM | Hs-578T 27 µM | NCI/ADR-RES 39.4 µM | MCF7 18.7 µM | KM12 22.2 µM | CAKI-1 12.9 µM | CCRF-CEM 2.67 µM | MDA-MB-231 21.7 µM | T47D 23.7 µM | SK-MEL-5 15.2 µM | SK-MEL-2 19.5 µM | RPMI-8226 17 µM | 786-0 12.3 µM | IGROV-1 20.3 µM | ACHN 8.02 µM | U-251 18.3 µM | NCI-H23 24.5 µM | LOX IMVI 15.8 µM | PC-3 17 µM | DU-145 14.5 µM | SNB-19 35.8 µM | NCI-H226 82.2 µM | UO-31 13.5 µM | UACC-62 18.4 µM | A498 16.1 µM | OVCAR-5 1.68 µM | MDA-N 17.9 µM | HT-29 14.8 µM | A549 19 µM
